This passage reports IC50 results from BindingDB's records for doi:10.1016/j.bmcl.2019.04.009 (Wannan Medical College, 2019).

This test addresses Epidermal growth factor receptor (Homo sapiens, UniProt P00533). Description: Inhibition of EGFR L858R mutant (unknown origin) using polyE4Y1 as substrate measured after 60 mins.

Sequence of Epidermal growth factor receptor (P00533 25-1210 L858R limits assumed): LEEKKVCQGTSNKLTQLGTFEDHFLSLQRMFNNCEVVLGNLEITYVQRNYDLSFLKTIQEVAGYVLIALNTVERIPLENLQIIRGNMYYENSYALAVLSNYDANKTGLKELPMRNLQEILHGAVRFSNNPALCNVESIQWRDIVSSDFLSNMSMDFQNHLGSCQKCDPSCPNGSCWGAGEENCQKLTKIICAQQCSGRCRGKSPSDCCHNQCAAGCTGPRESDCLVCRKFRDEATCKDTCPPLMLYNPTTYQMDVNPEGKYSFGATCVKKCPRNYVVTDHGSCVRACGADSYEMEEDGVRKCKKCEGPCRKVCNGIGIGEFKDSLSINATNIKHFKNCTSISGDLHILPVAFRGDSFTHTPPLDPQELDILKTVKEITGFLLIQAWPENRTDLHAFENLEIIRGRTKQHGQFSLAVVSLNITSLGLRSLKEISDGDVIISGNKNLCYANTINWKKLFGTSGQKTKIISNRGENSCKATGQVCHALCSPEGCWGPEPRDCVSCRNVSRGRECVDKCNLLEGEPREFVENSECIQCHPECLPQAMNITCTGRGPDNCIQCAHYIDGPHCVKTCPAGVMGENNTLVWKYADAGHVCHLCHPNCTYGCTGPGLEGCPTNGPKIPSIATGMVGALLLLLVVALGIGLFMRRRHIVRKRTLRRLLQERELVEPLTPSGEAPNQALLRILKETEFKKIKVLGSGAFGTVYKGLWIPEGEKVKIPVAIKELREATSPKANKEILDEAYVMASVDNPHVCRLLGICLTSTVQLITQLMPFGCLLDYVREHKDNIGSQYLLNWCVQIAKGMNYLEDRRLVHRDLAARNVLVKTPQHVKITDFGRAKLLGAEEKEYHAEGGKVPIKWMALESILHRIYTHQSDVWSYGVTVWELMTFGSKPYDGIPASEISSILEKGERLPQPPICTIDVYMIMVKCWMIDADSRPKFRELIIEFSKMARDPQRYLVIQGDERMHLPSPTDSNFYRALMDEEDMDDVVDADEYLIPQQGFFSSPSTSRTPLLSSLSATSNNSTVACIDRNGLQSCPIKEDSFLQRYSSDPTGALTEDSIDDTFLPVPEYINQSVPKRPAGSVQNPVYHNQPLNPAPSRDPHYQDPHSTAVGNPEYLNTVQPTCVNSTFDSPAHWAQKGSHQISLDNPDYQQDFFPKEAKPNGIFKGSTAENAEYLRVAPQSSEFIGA

In general, IC50 refers to the point on the concentration scale where inhibition reaches its midpoint. For the compound `C[C@H]1[C@H](C)CC[C@]2(C(=O)O)CC[C@]3(COC(=O)/C=C/c4ccc(O)cc4)C(=CC[C@@H]4[C@@]5(C)CC[C@H](O)C(C)(C)[C@@H]5CC[C@]43C)[C@H]12` [27-trans-p-coumaroyloxyursolic acid], it took 56 nM to reach half-maximal inhibition (IC50).
